Experimental data taken from patent publication US20240180880A1, “METHODS OF USING EHMT2 INHIBITORS IN TREATING OR PREVENTING BLOOD DISORDERS” (Epizyme, Inc., priority 2017, published 2024).
Where two headings read alike, the source gives them in different places.

System: 284 cell lines
Test: cells
Protocol: A screen of 284 cell lines to assess the antiproliferative effect of EHMT2 inhibition was conducted by treating cell lines in 384-well format with a half-log step dilutions of Compound 205 over 10 concentrations with a maximum concentration of 0.1% v/v DMSO. Cells were plated on Day 0 and treated with compound on Day 1. Culture medium was replaced on day 7 and cells redosed. After 10-day incubation, cells were fixed and stained with nuclear dye. Automated fluorescence microscopy was carried out using a Molecular Devices ImageXpress Micro XL high-content imager, and images were collected with a 4× objective. 16-bit TIFF images were acquired and analyzed with MetaXpress 5.1.0.41 software. Cell proliferation was measured by the fluorescence intensity of the incorporated nuclear dye. Cell count IC50 is the test compound concentration at 50% of maximal response of the untreated control.

Q: What does the source list for `CNc1cc(C)nc(Nc2ccc(OC)c(OCCCN3CCCC3)c2)n1` [Compound 205]?
A: IC50 (Homo sapiens, T98G, read-out: Cell Count IC50, T98G, Central Nervous System, Glioma): > 10 µM; IC50 (Homo sapiens, TCC-SUP, read-out: Cell Count IC50, TCCSUP, Bladder): 0.1 to 1 µM; IC50 (Homo sapiens, THP-1, read-out: Cell Count IC50, Thp 1, Hematopoietic, Leukemia): 1 to 10 µM; IC50 (Homo sapiens, U2OS, read-out: Cell Count IC50, U2OS, Bone, Osteosarcoma): 1 to 10 µM; IC50 (Homo sapiens, U138-MG, read-out: Cell Count IC50, U-138MG, Central Nervous System, Glioma): 1 to 10 µM; IC50 (Homo sapiens, U-87 MG, read-out: Cell Count IC50, U-87 MG, Central Nervous System, Glioma): 1 to 10 µM; IC50 (Homo sapiens, U-118-MG, read-out: Cell Count IC50, U-118 MG, Central Nervous System, Glioma): 0.1 to 1 µM; IC50 (Homo sapiens, UMUC3, read-out: Cell Count IC50, UM-UC-3, Bladder): 1 to 10 µM; IC50 (Homo sapiens, WM 266-4, read-out: Cell Count IC50, WM-266-4, Skin, Melanoma): 0.1 to 1 µM; IC50 (Homo sapiens, WiDr, read-out: Cell Count IC50, WiDr, Colon): 1 to 10 µM; IC50 (Homo sapiens, YAPC, read-out: Cell Count IC50, YAPC, Pancreas): > 10 µM; IC50 (Homo sapiens, ZR-75-1, read-out: Cell Count IC50, ZR-75-1, Breast): > 10 µM; IC50 (Hs 445, read-out: Cell Count IC50, Hs 445, Hematopoietic, Lymphoma): 1 to 10 µM; IC50 (Hs766T, read-out: Cell Count IC50, Hs 766T, Pancreas): > 10 µM; IC50 (KHOS-240S, read-out: Cell Count IC50, KHOS-240S, Bone, Osteosarcoma): 1 to 10 µM; IC50 (KPL-1, read-out: Cell Count IC50, KPL-1, Breast): > 10 µM; IC50 (MS751, read-out: Cell Count IC50, MS751, Female GU, Cervix): 1 to 10 µM; IC50 (OCUG-1, read-out: Cell Count IC50, OCUG-1, Liver): 0.1 to 1 µM; IC50 (OE21, read-out: Cell Count IC50, OE21, Head and Neck): 1 to 10 µM; IC50 (RKOAS451, read-out: Cell Count IC50, RKO-AS45-1, Colon): 1 to 10 µM; IC50 (SKO-007, read-out: Cell Count IC50, SKO-007, Hematopoietic, Myeloma): 1 to 10 µM; IC50 (TE 381.T, read-out: Cell Count IC50, TE 381.T, Soft & Connective Tissue, Sarcoma): 1 to 10 µM; IC50 (read-out: Cell Count IC50, 5637, Bladder): > 10 µM; IC50 (read-out: Cell Count IC50, A7, Skin, Melanoma): > 10 µM; IC50 (read-out: Cell Count IC50, A388, Skin, Head and Neck): 1 to 10 µM; IC50 (read-out: Cell Count IC50, AGS, Stomach): 1 to 10 µM; IC50 (read-out: Cell Count IC50, AUS65, Breast): 1 to 10 µM; IC50 (read-out: Cell Count IC50, BC-1, Hematopoietic, Lymphoma): 0.1 to 1 µM; IC50 (read-out: Cell Count IC50, C32, Skin, Melanoma): 1 to 10 µM; IC50 (read-out: Cell Count IC50, DB, Hematopoietic, Lymphoma): 0.01 to 0.1 µM; IC50 (read-out: Cell Count IC50, DK-MG, Central Nervous System, Glioma): 1 to 10 µM; IC50 (read-out: Cell Count IC50, EB2, Hematopoietic, Lymphoma): 1 to 10 µM; IC50 (read-out: Cell Count IC50, EB-3, Hematopoietic, Lymphoma): > 10 µM; IC50 (read-out: Cell Count IC50, EM-2, Hematopoietic, Leukemia): 1 to 10 µM; IC50 (read-out: Cell Count IC50, H4, Central Nervous System, Glioma): > 10 µM; IC50 (read-out: Cell Count IC50, HLE, Liver): > 10 µM; IC50 (read-out: Cell Count IC50, HLF, Liver): 1 to 10 µM; IC50 (read-out: Cell Count IC50, HOS, Bone, Osteosarcoma): 0.1 to 1 µM; IC50 (read-out: Cell Count IC50, HT-3, Female GU, Cervix): > 10 µM; IC50 (read-out: Cell Count IC50, HT, Hematopoietic, Lymphoma): 1 to 10 µM; IC50 (read-out: Cell Count IC50, Hs 229.T, Lung, NSCLC): > 10 µM; IC50 (read-out: Cell Count IC50, Hs 611.T, Hematopoietic, Lymphoma): 1 to 10 µM; IC50 (read-out: Cell Count IC50, Hs 688(A).T, Skin, Melanoma): 1 to 10 µM; IC50 (read-out: Cell Count IC50, Hs 729, Soft & Connective Tissue, Sarcoma): 0.01 to 0.1 µM; IC50 (read-out: Cell Count IC50, Hs 821.T, Soft & Connective Tissue, Sarcoma): 1 to 10 µM; IC50 (read-out: Cell Count IC50, Hs 852.T, Skin, Melanoma): > 10 µM; IC50 (read-out: Cell Count IC50, Hs 888.Sk, Bone, Osteosarcoma): > 10 µM; IC50 (read-out: Cell Count IC50, Hs 934.T, Skin, Melanoma): > 10 µM; IC50 (read-out: Cell Count IC50, Hs 936.T(C1), Skin, Melanoma): 1 to 10 µM; IC50 (read-out: Cell Count IC50, IM-9, Hematopoietic, Myeloma): > 10 µM; IC50 (read-out: Cell Count IC50, J82, Bladder): 1 to 10 µM; IC50 (read-out: Cell Count IC50, JAR, Placenta): > 10 µM; IC50 (read-out: Cell Count IC50, KLE, Female GU, Uterus): > 10 µM; IC50 (read-out: Cell Count IC50, MT-3, Colon): 0.1 to 1 µM; IC50 (read-out: Cell Count IC50, MX1, Hematopoietic, Leukemia): > 10 µM; IC50 (read-out: Cell Count IC50, NAMALWA, Hematopoietic, Lymphoma): 1 to 10 µM; IC50 (read-out: Cell Count IC50, PA-1, Female GU, Ovary): 1 to 10 µM; IC50 (read-out: Cell Count IC50, PC-3, Prostate): > 10 µM; IC50 (read-out: Cell Count IC50, RD, Soft & Connective Tissue, Sarcoma): 1 to 10 µM; IC50 (read-out: Cell Count IC50, RKO, Colon): 1 to 10 µM; IC50 (read-out: Cell Count IC50, SH-4, Skin, Melanoma): 1 to 10 µM; IC50 (read-out: Cell Count IC50, SK-PN-DW, Soft & Connective Tissue, Sarcoma): 1 to 10 µM; IC50 (read-out: Cell Count IC50, SR, Hematopoietic, Lymphoma): 1 to 10 µM; IC50 (read-out: Cell Count IC50, T24, Bladder): > 10 µM; IC50 (read-out: Cell Count IC50, TE 125.T, Soft & Connective Tissue, Sarcoma): 0.1 to 1 µM; IC50 (read-out: Cell Count IC50, TF-1, Hematopoietic, Leukemia): 1 to 10 µM; IC50 (read-out: Cell Count IC50, TT, Endocrine, Thyroid): 1 to 10 µM; IC50 (read-out: Cell Count IC50, TUR, Hematopoietic, Lymphoma): 1 to 10 µM; IC50 (read-out: Cell Count IC50, U266B1, Hematopoietic, Myeloma): 1 to 10 µM; IC50 (read-out: Cell Count IC50, VA-ES-BJ, Soft & Connective Tissue, Sarcoma): > 10 µM; IC50 (read-out: Cell Count IC50, Y79, Eve, Eye): > 10 µM
